The results in this text go back to patent US20140350081A1, “INSECT G-COUPLED RECEPTORS USEFUL AS TARGETS FOR INSECTICIDES AND COMPOUNDS AND REAGENTS IDENTIFIED USING THE SAME” (priority 2011, published 2014).

A word on the inhibition: it is how much of the control response was suppressed. One may read the mortality as the share of the test organisms that died.

Structures can show the parent of a compound that is named as a salt. Where two headings read alike, the source gives them in different places.

Assay [1] concerns the target Isdop2 (Ixodes scapularis, UniProt A0ACM8DGL0). The experiment in a line: cell-based. Particulars: for inhibition at 10 µM: read-out: % Inhibition (of response to dopamine), Isdop2 screen.
Assay [2] concerns Ae. aegypti L3 larvae. Put plainly: whole plant or invertebrate. The following applies: Aedes aegypti.
The mark [3] stands for this setting: 10 μM compound, footnote 3 mM dopamine.
The mark [4] stands for this setting: 24 h, read-out: Toxicity to Aedes aegypti larvae (mortality) 24 hours, 400 μM, L3 larvae, three independent experiments.
[5] abbreviates: 48 h, read-out: Toxicity to Aedes aegypti larvae (mortality) 48 hours, 400 μM, L3 larvae, three independent experiments.
The mark [6] stands for this setting: 72 h, read-out: Toxicity to Aedes aegypti larvae (mortality) 72 hours, 400 μM, L3 larvae, three independent experiments.
Setting [7] is: 0.5 h, read-out: percent mortality 0.5 hr, 400 uM, L3 larvae, value for this scoring time.
The mark [8] stands for this setting: 1 h, read-out: percent mortality 1 hr, 400 uM, L3 larvae, per scoring time.
[9] abbreviates: 2 h, read-out: percent mortality 2 hr, 400 uM, L3 larvae, per scoring time.
Where [10] appears, read: 3 h, read-out: percent mortality 3 hr, 400 uM, L3 larvae, per scoring time.
Setting [11] is: 4 h, read-out: percent mortality 4 hr, 400 uM, L3 larvae, per scoring time.
Where [12] appears, read: 24 h, read-out: percent mortality 24 hr, 400 uM, L3 larvae, per scoring time.
Setting [13] is: 48 h, read-out: percent mortality 48 hr, 400 uM, L3 larvae, per scoring time.
[14] abbreviates: 72 h, read-out: Cumulative % Mortality (72 hrs), 400 uM, L3 larvae.
Setting [15] is: 72 h, read-out: percent mortality 72 hr, 400 uM, L3 larvae, per scoring time.
[16] abbreviates: […], read-out: percent mortality […], 400 uM, L3 larvae, per scoring time.

Chain of Isdop2 (A0ACM8DGL0 entry or part of it): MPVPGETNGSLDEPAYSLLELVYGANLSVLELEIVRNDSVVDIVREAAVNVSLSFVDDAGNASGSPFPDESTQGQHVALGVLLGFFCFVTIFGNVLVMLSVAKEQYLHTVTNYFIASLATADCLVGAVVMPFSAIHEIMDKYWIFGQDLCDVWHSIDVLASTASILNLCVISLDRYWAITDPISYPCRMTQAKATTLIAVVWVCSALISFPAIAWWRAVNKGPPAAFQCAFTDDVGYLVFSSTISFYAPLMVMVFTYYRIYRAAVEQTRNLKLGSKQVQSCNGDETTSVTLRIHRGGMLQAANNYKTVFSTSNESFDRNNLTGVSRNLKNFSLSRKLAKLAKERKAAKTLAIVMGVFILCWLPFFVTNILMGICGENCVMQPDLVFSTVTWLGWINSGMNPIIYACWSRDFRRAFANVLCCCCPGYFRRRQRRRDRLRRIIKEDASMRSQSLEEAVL

In the case of `CN1CCN2c3ccccc3Cc3ccccc3C2C1` (racemic) [Mianserin, ((±)-2-methyl-1,2,3,4,10,14b-hexahydrodibenzo[c,f]pyrazino [1,2-a]azepine)], the inhibition at 10 µM in assay [1] came out at 87%.

With `CSc1ccc2c(c1)N(CCC1CCCCN1C)c1ccccc1S2` (racemic) [Thioridazine, 10-{2-[(RS)-1-Methylpiperidin-2-yl]ethyl}-2-methylsulfanylphenothiazine], in assay [1], the inhibition at 10 µM was 85%.

For `COC1=C(OC)C(=O)c2ccccc2C1=O` [2,3-Dimethoxy-1,4-naphthoquinone], in assay [1], the inhibition at 10 µM is 68%.

Turning to `CN1[C@@H]2CC[C@H]1C[C@@H](OC(c1ccccc1)c1ccccc1N)C2` (stereo partly drawn) [Aminobenztropine], in assay [1], the inhibition at 10 µM turned out to be 71%.

For `Clc1ccc2c(c1)C(N1CCNCC1)=Nc1ccccc1O2` [Amoxapine, 2-Chloro-11-(piperazin-1-yl)dibenzo[b,f][1,4]oxazepine], the inhibition at 10 µM in assay [1] was determined as 92%.

Regarding `O=c1cc(-c2ccc(O)cc2)oc2cc(O)cc(O)c12` [Apigenin], the inhibition at 10 µM in assay [1] stood at 98%.

Take `COc1ccccc1N1CCN(CCCCNC(=O)c2ccc3ccccc3c2)CC1` [BP 897]: the inhibition at 10 µM in assay [1] was found to be 71%.

Take `CCn1cnc2c(Nc3cccc(Cl)c3)nc(N[C@@H]3CCCC[C@@H]3N)nc21.Cl` [CGP-74514A hydrochloride]: the “% Inhibition (of response to dopamine), Isdop2 screen” value (from here on “% Inhibition”) in assay [1] is on record as 98%.

With `CN(C)CCC=C1c2ccccc2C=Cc2ccccc21` [Cyclobenzaprine], the inhibition at 10 µM in assay [1] came to 95%.

For `CN1CCC(=C2c3ccccc3C=Cc3ccccc32)CC1` [Cyproheptadine], the inhibition at 10 µM in assay [1] worked out at 93%.

In the case of `OC[C@H]1O[C@@H](n2cnc3ccccc32)[C@H](O)[C@@H]1O` [D-ribofuranosylbenzimidazole], the “% Inhibition” value in assay [1] (setting [3]) was 82%.

In the case of `O=c1c(-c2ccc(O)cc2)coc2cc(O)ccc12` [Daidzein], in assay [1], the inhibition at 10 µM amounted to 77%.

With `Cc1cc(N)c2ccccc2[n+]1CCCCCCCCCC[n+]1c(C)cc(N)c2ccccc21` [Dequalinium dichloride], the inhibition at 10 µM in assay [1] is 75%.

For the molecule `C[C@@H]1O[C@@H](O[C@H]2C[C@@H](O)[C@]3(CO)[C@H]4[C@H](O)C[C@]5(C)[C@@H]([C@@H]6COC(=O)C6)CC[C@]5(O)[C@@H]4CC[C@]3(O)C2)[C@H](O)[C@H](O)[C@H]1O` [Dihydroouabain], in assay [1] (setting [3]), the “% Inhibition” value is on record as 76%.

Consider `c1ccc2c(c1)[I+]c1ccccc1-2` [Diphenyleneiodonium chloride], for which the inhibition at 10 µM in assay [1] turned out to be 78%.

Regarding `CNCCC(Oc1ccc(C(F)(F)F)cc1)c1ccccc1` (stereo not drawn) [Fluoxetine], the mortality at 400 µM is 43% in assay [2] (setting [4]), 53% in assay [2] (setting [5]) and 53% in assay [2] (setting [6]).

As for `OCCN1CCN(CCCN2c3ccccc3Sc3ccc(C(F)(F)F)cc32)CC1` [Fluphenazine, 2-[4-[3-[2-(trifluoromethyl)-10H-phenothiazin-10-yl]propyl]piperazin-1-yl]ethanol], in assay [1], the inhibition at 10 µM is 79%.

Turning to `O=C1Nc2ccc(I)cc2/C1=C/c1cc(Br)c(O)c(Br)c1` [GW5074], in assay [1], the “% Inhibition” value is 81%.

For `O=c1c(-c2ccc(O)cc2)coc2cc(O)cc(O)c12` [Genistein], in assay [1], the inhibition at 10 µM stood at 71%.

As to `CC1CNCCN1S(=O)(=O)c1cccc2cnccc12.Cl.Cl` (stereo not drawn) [H-7 dihydrochloride], the “% Inhibition” value in assay [1] is listed as 73%.

As to `O=C1Nc2ccccc2/C1=C1/Nc2ccccc2/C1=N\O` [Indirubin-3′-oxime], the “% Inhibition” value in assay [1] came out at 93%.

Turning to `O=C(c1ccc(F)cc1)C1CCN(CCn2c(=O)[nH]c3ccccc3c2=O)CC1` [Ketanserin], the mortality at 400 µM in assay [2] (setting [7]), in assay [2] (setting [8]), in assay [2] (setting [9]), in assay [2] (setting [10]), in assay [2] (setting [11]) and in assay [2] (setting [4]) was 0% throughout. Also, the mortality at 400 µM in assay [2] (setting [12]), in assay [2] (setting [5]), in assay [2] (setting [13]), in assay [2] (setting [14]), in assay [2] (setting [6]) and in assay [2] (setting [15]) was 0% throughout. Besides, the mortality at 400 µM in assay [2] (setting [16]) came out at 0%.

For the molecule `COc1ccccc1N1CCN(CCCCN2C(=O)c3ccccc3C2=O)CC1` [NAN-190 hydrobromide], the inhibition at 10 µM in assay [1] was determined as 69%.

As for `C[C@@H]1O[C@@H](O[C@H]2C[C@@H](O)[C@]3(CO)[C@H]4[C@H](O)C[C@]5(C)[C@@H](C6=CC(=O)OC6)CC[C@]5(O)[C@@H]4CC[C@]3(O)C2)[C@H](O)[C@H](O)[C@H]1O` [Ouabain], the inhibition at 10 µM in assay [1] came out at 86%.

Take `COc1cccc(-c2cc(=O)c3ccccc3o2)c1N` [PD 98,059]: in assay [1] (setting [3]), the “% Inhibition” value was found to be 87%.

Consider `NC(=Nc1ccccc1)NC(=O)c1nc(Cl)c(N)nc1N` [Phenamil methanesulfonate], for which the inhibition at 10 µM in assay [1] came out at 72%.

Turning to `CN1CCN(CC(=O)N2c3ccccc3C(=O)Nc3cccnc32)CC1` [Pirenzepine], the mortality at 400 µM in assay [2] (setting [7]), in assay [2] (setting [8]), in assay [2] (setting [9]), in assay [2] (setting [10]), in assay [2] (setting [11]) and in assay [2] (setting [4]) was 0% in each case. Further, the mortality at 400 µM in assay [2] (setting [12]), in assay [2] (setting [5]), in assay [2] (setting [13]), in assay [2] (setting [14]), in assay [2] (setting [6]) and in assay [2] (setting [15]) was 0% each time. For the same molecule, in assay [2] (setting [16]), the mortality at 400 µM came out at 0%.

`CN1CCN(CCCN2c3ccccc3Sc3ccc(Cl)cc32)CC1` [Prochlorperazine, 2-chloro-10-[3-(4-methyl-1-piperazinyl)propyl]-10H-phenothiazine]: the inhibition at 10 µM in assay [1] was found to be 86%.

Take `CCN(CC)C(=O)N[C@H]1C[C@@H]2c3cccc4[nH]cc(c34)C[C@H]2N(C)C1` [R(+)-Terguride]: the “% Inhibition” value in assay [1] worked out at 68%.

As for `Cc1nc2n(c(=O)c1CCN1CCC(c3noc4cc(F)ccc34)CC1)CCCC2` [Risperidone, 4-[2-[4-(6-fluorobenzo[d]isoxazol-3-yl)-1-piperidyl]ethyl]-3-methyl-2,6-diazabicyclo[4.4.0]deca-1,3-dien-5-one], the inhibition at 10 µM in assay [1] was found to be 100%.

For the molecule `CC[C@H](CO)Nc1nc(NCc2ccccc2)c2ncn(C(C)C)c2n1` [Roscovitine], in assay [1], the inhibition at 10 µM was 91%.

For the molecule `C=C(C)[C@H]1Cc2c(ccc3c2O[C@@H]2COc4cc(OC)c(OC)cc4[C@@H]2C3=O)O1` [Rotenone], the inhibition at 10 µM in assay [1] stood at 77%.

On to `CC(=O)c1c(O)c(C)c(O)c(Cc2c(O)c3c(c(C(=O)/C=C/c4ccccc4)c2O)OC(C)(C)C=C3)c1O` [Rottlerin], for which, in assay [1], the inhibition at 10 µM worked out at 97%.

For the molecule `Cc1ccc(O)c(N=Nc2ccccc2)n1` [SIB 1757], the “% Inhibition” value in assay [1] (setting [3]) stood at 100%.

Turning to `CN1CCc2cccc(Cl)c2CC1` [SKF86466], in assay [1] (setting [3]), the “% Inhibition” value is reported as 86%.

For the molecule `Br.CN1CCc2cc(O)c(O)cc2C(c2ccccc2)C1` (stereo not drawn) [SKF 75670 hydrobromide], the “% Inhibition” value in assay [1] is on record as 68%.

`C[n+]1cc2c3c(ccc2c2ccc4cc5c(cc4c21)OCO5)OCO3` [Sanguinarine chloride]: the inhibition at 10 µM in assay [1] is 100%.
